From publication PMC8234864, “Early Effects of the Soluble Amyloid β25-35 Peptide in Rat Cortical Neurons: Modulation of Signal Transduction Mediated by Adenosine and Group I Metabotropic Glutamate Receptors” (International Journal of Molecular Sciences, 2021)
Where no end group is shown, it is not given here.

Columns and labels:
[1] = biological target: T1, A2AR (Rattus norvegicus, UniProt P30543); assay: A2AR-mediated AC stimulation (CGS 21680); format: cell-based; settings: 25 µM, 24 h; 1 µM CGS 21680
T1 construct: endogenous in cells; host or cells: rat primary cortical neurons (intact)
T1 sequence (P30543 whole entry): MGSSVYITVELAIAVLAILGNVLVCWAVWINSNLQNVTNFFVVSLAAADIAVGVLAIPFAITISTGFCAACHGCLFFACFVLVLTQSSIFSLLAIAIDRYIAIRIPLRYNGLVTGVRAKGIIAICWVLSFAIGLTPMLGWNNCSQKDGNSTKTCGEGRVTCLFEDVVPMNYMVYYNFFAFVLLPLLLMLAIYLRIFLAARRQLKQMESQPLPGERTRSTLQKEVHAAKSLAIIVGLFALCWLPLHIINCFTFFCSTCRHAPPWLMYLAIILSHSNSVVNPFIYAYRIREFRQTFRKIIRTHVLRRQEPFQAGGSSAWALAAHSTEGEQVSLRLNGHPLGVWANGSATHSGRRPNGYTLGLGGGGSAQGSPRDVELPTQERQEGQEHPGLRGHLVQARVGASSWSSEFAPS
Protocol: AC activity was determined as previously reported by Murphy with minor modifications. Briefly, control or treated cells were pre-incubated in serum-free DMEM buffered with 20 mM HEPES, pH 7.4, supplemented with 100 µM Ro 20-1724 and 2 U/mL ADA, for 10 min at 37 °C. AC activity was stimulated using specific ligands for 15 min at 37 °C in a final volume of 250 µL. The reaction was stopped by adding 500 µL 0.1 M HCl in absolute ethanol. Once centrifuged at 12,000× g for 10 min, supernatants were evaporated in speed-vac and resuspended in 150 µL assay buffer (50 mM Tris-HCl, 4 mM EDTA). Fifty microliters of the sample were used to determine cAMP accumulation using protein kinase A as a cAMP binding protein and [^3H]cAMP as radioligand. A cAMP standard curve (0–16 pmol) was prepared in the same buffer. Incubation was stopped by rapid filtration through Whatman GF/B filters.

[2] = system: PLCβ1; assay: PLCβ1 immunocytochemistry in permeabilized neurons; format: cell-based, rat; settings: 25 µM, 24 h
Protocol: For PLCβ1 immunostaining, the protocol described above was followed with the introduction of modified steps. Before the nonspecific staining blockade with 3% normal goat serum, cells were pre-treated with Triton 0.25% in LB for 10 min to induce membrane permeabilization. Cells were incubated overnight in blocking buffer with mouse anti-PLCβ1 monoclonal antibody (1:500) from Millipore (Bedford, MA, USA). The following day, after three LB washes (10 min each), cortical neurons were exposed to Cy3-conjugated goat anti-mouse IgG (1:600). In all immunochemical procedures, internal controls were carried out where primary antibodies were not added to the blocking buffer.
To evaluate the degree of fluorescence intensity in cortical neurons, fluorescence was measured to estimate the protein expression in the different experimental conditions analyzed. Images (448.6 µm × 335.08 µm) obtained with a digital camera (Leica DFC350FX R2), attached to a Leica DMI6000B (Leica Microsystems, Wetzlar, Germany) fluorescent microscope, were used for quantification (20x HCX PL FLUOTAR 0.4 dry objective). […] Fluorescence intensity was estimated by averaging mean grey values. […] Data were normalized to the total number of cells in the analyzed fields. The mean fluorescence background, calculated in the unstained regions between neurons, was subtracted from the fluorescence intensity of each data point. […]

[3] = system: A2AR (ADORA2A) gene expression; assay: A2AR gene expression by real-time PCR; format: cell-based, rat; settings: 25 µM, 24 or 48 h
Protocol: Total RNA was extracted using an ABI 6100 Nucleic Acid PrepStation according to the manufacturer’s protocol (Applied Biosystems Inc., Foster City, CA, USA). Total RNA from cells was isolated and stored at −80 °C. The quality of isolated RNA was estimated by the ratio A260/A280 and was in the range of 1.9–2.1. RNA integrity was evaluated by agarose gel electrophoresis according to MIQE guidelines using the “bleach gel” method. RNA concentrations were determined from the A260. One microgram of total RNA was reverse transcribed using Applied Biosystems High-Capacity cDNA Archive Kit.
To assess relative gene expression in neurons, quantitative real-time RT-PCR analysis was performed with an Applied Biosystems Prism 7500 Fast Sequence Detection System using TaqMan® universal PCR master mix according to the manufacturer’s specifications. […] Levels of RNA expression were determined using the 7500 Fast System SDS software version 1.3.1 (Applied Biosystems) according to the 2^−ΔΔCt method. […] The results from three independent repeat assays, performed in different plates each using different cDNA’s from the cultures analyzed, were averaged to produce a single mean quantity value for each mRNA.

## GSNKGAIIGLM [Aβ25-35]
[1]
  A2AR-mediated stimulation of AC activity: did not alter
[2]
  total PLCβ1 protein decrease over control value: 40%
[3]
  A2AR gene expression: significantly increased
